Results published in patent US20210187106A1, “COMBINATION OF LIF INHIBITORS AND PLATINUM-BASED ANTINEOPLASTIC AGENTS FOR USE IN TREATING CANCER” (MEDIMMUNE LIMITED, priority 2018, published 2021).
Where “and” joins values, the source holds several entries; their conditions need not be identical. Identical values can stand only once. Entries after “also recorded” stand apart in the source; their conditions may differ.

Tests used:
CT26 tumors [1] = assay: Subcutaneous implanted CT26 model, h5D8 combined with cisplatin, doxorubicin or paclitaxel; format: in vivo, mouse; settings: individual BALB/c mice, h5D8 15 mg/kg twice a week, cisplatin 10 mg/kg once a week, paclitaxel 15 mg/kg twice a week, doxorubicin 4 mg/kg once a week
ID8 cells = assay: Ovarian orthotopic syngeneic tumor model ID8 in mice; format: in vivo; settings: 200 μg/mouse and above twice weekly, FIG. 8C
Experimental: The efficacy of r5D8 was evaluated in two other syngeneic tumor models.
ID8 cells were cultured in Dulbecco's Modified Eagle Medium (DMEM) (Gibco, Invitrogen), supplemented with 10% Fetal Bovine Serum (FBS) (Gibco, Invitrogen), 40 U/mL Penicillin and 40 μg/mL Streptomycin (PenStrep) (Gibco, Invitrogen) and 0.25 μg/mL Plasmocin (Invivogen).
The ID8 cells were harvested, washed in PBS, centrifuged at 400 g for 5 min and resuspended in PBS. Cells were kept on ice to maintain optimal viability and 200 μL of the cell suspension was injected intraperitoneally with a 27G needle. The final cell number implanted into mice was 5×10^6.
Mice were treated twice weekly with h5D8 administered ip at different doses as indicated. Body weights were measured 2 times/week and tumor progression was monitored by measuring abdominal girth using a caliper (Fisher Scientific).

human U251 GBM cells = assay: Orthotopic GBM tumor model with luciferase expressing U251 cells in mice; format: in vivo; settings: 200 μg or 300 μg twice a week, FIG. 7B
Experimental: Results of this study are shown in FIG. 7A (quantitation at day 26 post treatment). […] Tumor size was determined by bioluminescence (Xenogen IVIS Spectrum) on day 7. […] Statistical significance was calculated using the unpaired non-parametric Mann-Whitney U-test.
U251 cells stably expressing luciferase were harvested, washed in PBS, centrifuged at 400 g for 5 min, resuspended in PBS and counted with an automated cell counter (Countess, Invitrogen). Cells were kept on ice to maintain optimal viability. Mice were anaesthetized with intraperitoneal administration of Ketamine (Ketolar50®)/Xylacine (Rompún®) (75 mg/kg and 10 mg/kg respectively). Each mouse was carefully placed in the stereotactic device and immobilized. […]
Body weight and tumor volume: Body weight was measured 2 times/week and tumor growth was quantified by bioluminescence on day 7 (Xenogen IVIS Spectrum). To quantify bioluminescence activity in vivo, mice were anaesthetized using isofluorane, and injected intraperitoneally with luciferin substrate (PerkinElmer) ([…]).
Tumor size as determined by bioluminescence (Xenogen IVIS Spectrum) was evaluated at day 7. The individual tumor measurements and mean±SEM for each treatment group were calculated. Statistical significance was determined by the unpaired non-parametric Mann-Whitney U-test.

CT26 tumors [2] = assay: Subcutaneous colon CT26 syngeneic tumor model in mice; format: in vivo, mouse; settings: FIG. 10E
Experimental: CT26 cells were cultured in Roswell Park Memorial Institute medium (RPMI [Gibco, Invitrogen]), supplemented with 10% Fetal Bovine Serum (FBS), 40 U/mL penicillin and 40 μg/mL streptomycin (PenStrep) and 0.25 μg/mL Plasmocin.
CT26 cells (8×10^5)were trypsinized, rinsed with PBS, centrifuged at 400 g for 5 minutes and resuspended in 100 μL PBS. Cells were kept on ice to avoid cell death. The CT26 cells were administered to mice via subcutaneous injection using a 27G needle.
300 μg r5D8, or vehicle control, was administered to the mice via intraperitoneal injection (IP) twice weekly from day 3 post CT26 cell implant.
Body weight and tumor volumes were measured three times per week. Tumor volume was measured using a caliper (Fisher Scientific).

[3] = test system: STAT3 phosphorylation (Tyr 705) in U251 glioma cells; assay: Inhibition of STAT3 phosphorylation in glioma cell culture model of LIF activation, western blot; format: cell-based, human; settings: 10 μg/ml over night, FIG. 2A
Experimental: U251 glioma cells were plated in 6-well plates at a density of 150,000 cells/well. Cells were cultured in complete medium for 24 hours before any treatment.
After treatment, proteins were obtained in radio-immunoprecipitation assay (RIPA) lysis buffer containing phosphatase and protease inhibitors, quantified (BCA-protein assay, Thermo Fisher Scientific) and used in western blot. For western blot, membranes were blocked for 1 hour in 5% non-fatty milk—TBST and incubated with the primary antibody overnight (p-STAT3, catalog #9145, Cell Signaling or STAT3, catalog #9132, Cell Signaling) or 30 minutes (β-actin-peroxidase, catalog #A3854, Sigma-Aldrich). Membranes were then washed with TBST, incubated with secondary antibody if necessary, and washed again. Proteins were detected by chemiluminescence (SuperSignal Substrate, catalog #34076, Thermo Fisher Scientific).

[4] = test system: CCL22 and CD206 (MRC1) expression in patient samples; assay: Human organotypic tissue slice culture model, M2 macrophage markers; format: cell-based; settings: three patient samples, FIG. 10B
[5] = test system: LIF-induced STAT3 phosphorylation in U251 glioma cells; assay: Inhibition of LIF-induced STAT3 phosphorylation (Tyr705) by western blot, 5D8 humanization panel; format: cell-based, human; settings: serum starved, antibody 10 μg/ml over night
Experimental: One clone from the rat immunization (5D8) was chosen for subsequent humanization. Humanization was conducted using standard CDR grafting methods. The heavy chain and light chain regions were cloned from the 5D8 hybridoma using standard molecular cloning techniques and sequenced by the Sanger method. A BLAST search was then conducted against human heavy chain and light chain variable sequences and 4 sequences from each were chosen as acceptor frameworks for humanization. These acceptor frameworks were deimmunized to remove T cell response epitopes. The heavy chain and light chain CDR1, CDR2 and CDR3 of 5D8 were cloned into the 4 different heavy chain acceptor frameworks (H1 to H4), and 4 different light chain frameworks (L1 to L4). Then all 16 different antibodies were tested for: expression in CHO-S cells (Selexis); inhibition of LIF-induced STAT3 phosphorylation; and binding affinity by Surface Plasmon Resonance (SPR). These experiments are summarized in
Inhibition of LIF-induced STAT3 phosphorylation at tyrosine 705 was determined by western blot. […] After treatment, proteins were obtained in radio-immunoprecipitation assay (RIPA) lysis buffer containing phosphatase and protease inhibitors, quantified (BCA-protein assay, Thermo Fisher Scientific) and used in western blot. […] Proteins were detected by chemiluminescence (SuperSignal Substrate, catalog #34076, Thermo Fisher Scientific). […]

[6] = test system: KLN205 non-small cell lung cancer (NSCLC) cells; assay: Orthotopic syngeneic mouse model of non-small cell lung carcinoma (KLN205); format: in vivo; settings: DBA/2 mice, 15 mg/kg or 30 mg/kg intraperitoneally twice a week, versus vehicle
Experimental: To determine the ability of the humanized 5D8 clone to inhibit a LIF positive cancer in vivo this antibody was tested in a mouse model of non-small cell lung carcinoma (NSCLC).
The murine non-small cell lung cancer (NSCLC) cell line KLN205 with high LIF levels was stably infected with lentivirus expressing the firefly luciferase gene for in vivo bioluminescence monitoring. To develop the mouse model, 5×10^5KLN205 non-small cell lung cancer (NSCLC) cells were orthotopically implanted into the left lung of 8-week-old immunocompetent syngeneic DBA/2 mice by intercostal puncture. […] For the bioluminescence imaging, mice received an intraperitoneal injection of 0.2 mL of 15 mg/mL D-luciferin under 1-2% inhaled isoflurane anesthesia. The bioluminescence signals were monitored using the IVIS system 2000 series (Xenogen Corp., Alameda, Calif., USA) consisting of a highly sensitive cooled CCD camera. Living Image software (Xenogen Corp.) was used to grid the imaging data and integrate the total bioluminescence signals in each boxed region. Data were analyzed using the total photon flux emission (photons/second) in the regions of interest (ROI). […] Data are presented as mean±SEM.

Compound: N.N.[Cl][Pt][Cl] [Cisplatin, cis-diamminedichloridoplatinum(II)]
- Tumor Volumes at Endpoint (Day 21) (CT26 tumors [1]): 328.5 mm^3 and 1279.7 mm^3 and 689.4 mm^3 and 512.3 mm^3 and 193.9 mm^3 and 997.5 mm^3 and 257.9 mm^3 and 924.4 mm^3 and 744.2 mm^3 and 1313.6 mm^3 and 676.0 mm^3 and 953.8 mm^3

Compound: COc1cccc2c1C(=O)c1c(O)c3c(c(O)c1C2=O)C[C@@](O)(C(=O)CO)C[C@@H]3O[C@H]1C[C@H](N)[C@H](O)[C@H](C)O1 [Doxorubicin]
- Tumor Volumes at Endpoint (Day 21) (CT26 tumors [1]): 408.7 mm^3 and 1207.4 mm^3 and 94.2 mm^3 and 109.1 mm^3 and 294.9 mm^3 and 780.2 mm^3 and 351.2 mm^3 and 735.2 mm^3 and 48.9 mm^3 and 463.9 mm^3 and 588.8 mm^3 and 230.3 mm^3

Compound: CC(=O)O[C@H]1C(=O)[C@@]2(C)[C@H]([C@H](OC(=O)c3ccccc3)[C@]3(O)C[C@H](OC(=O)[C@H](O)[C@@H](NC(=O)c4ccccc4)c4ccccc4)C(C)=C1C3(C)C)[C@]1(OC(C)=O)CO[C@@H]1C[C@@H]2O [Paclitaxel]
- Tumor Volumes at Endpoint (Day 21) (CT26 tumors [1]): 651.8 mm^3 and 214.0 mm^3 and 461.5 mm^3 and 698.3 mm^3 and 457.7 mm^3 and 256.2 mm^3 and 592.2 mm^3 and 435.9 mm^3 and 762.1 mm^3 and 1236.2 mm^3 and 112.9 mm^3

Compound: h5D8: humanized (CDR grafted) version of rat anti-LIF antibody 5D8, H2 heavy and L2 light chain; VH SEQ ID NO: 42, VL SEQ ID NO: 46
- tumor volume / tumor growth (ID8 cells): reduced tumor volume; also recorded: significant reduction in tumor growth
- tumor size by bioluminescence on day 7 (human U251 GBM cells): statistically significant reduction in tumor
- inflammatory phenotype of tumor associated macrophages (TAMs) (CT26 tumors [2]; 15 mg/kg, 2 QW, day 25 (endpoint)): polarized towards the M1 pro-inflammatory phenotype
- macrophages with an M1 phenotype (CD206 negative/MHCII positive fraction) (CT26 tumors [2]; syngeneic CT26 tumor model): increased
- macrophages with an M2 phenotype (CD206 positive/MHCII negative fraction) (CT26 tumors [2]; syngeneic CT26 tumor model): decreased
- inhibition of STAT3 phosphorylation (Tyr 705) versus parental antibody [3]: increased inhibition
- Tumor Volumes at Endpoint (Day 21) (CT26 tumors [1]): 656.8 mm^3 and 1354.4 mm^3 and 1190.7 mm^3 and 1109.1 mm^3 and 906.6 mm^3 and 640.3 mm^3 and 0.0 mm^3 and 956.9 mm^3 and 318.7 mm^3 and 253.6 mm^3 and 1408.5 mm^3 and 508.3 mm^3
- CCL22 and CD206 (MRC1) expression [4]: significant decrease
- Inhibition of LIF-induced STAT3 phosphorylation (FIG. 1, in words) [5]: high
- tumor growth by bioluminescence [6]: promote tumor regression
- tumor growth by bioluminescence ([6]; listed as humanized 5D8): reduced tumor growth
